Molecules are shown by their SMILES.

Data set [1] can be described thus: Retardation factor of the compound in deionized water at 1 g at pH 3.3 after 90 mins by TLC analysis. As to conditions: pH 3.3, 1.5 h. Format: physicochemical.
Data set [2] in a line: Drug degradation in oxygen-18 enriched water assessed as 5,3-formyl-3,6-dihydro-6-phenyl-2,5(lH,4H)-pyrazinedione level at 60 mg by mass spectroscopic analysis. As to conditions: in vivo.
The nature of data set [3]: Drug degradation in deionized water assessed as 5,3-formyl-3,6-dihydro-6-phenyl-2,5(lH,4H)-pyrazinedione level at 100 mg at pH 3.3 after 90 mins by IR/TLC analysis. Format: physicochemical. As to conditions: pH 3.3, 1.5 h.
Data set [4] can be described thus: Drug degradation in deionized water assessed as 3-hydroxy-4-methyl-2(5H)-thiophenone level at 100 mg at pH 3.3 after 90 mins by IR/TLC analysis. In kind it is physicochemical. As to conditions: pH 3.3, 1.5 h.
The nature of data set [5]: Drug recovery in Purdue-Wistar rat feces at 1.6 mg/ml, po after 24 hrs. The settings on record: faeces.
Data set [6] in a line: Drug recovery in ICR mouse feces at 1.6 mg/ml, po after 24 hrs. The settings on record: faeces.
Another data set relates to Mus musculus. Kind of data set: Toxicity in po dosed ICR mouse. As to conditions: in vivo. Format: organism-based.

`O=CC1NC(=O)C(c2ccccc2)NC1=O` (stereo not drawn) yielded a Rf in data set [1] of 0.78. Still for that read-out and setting: for `CC1=C(O)C(=O)SC1` the value was 0.91. In the case of `CC1CSC(C2NC(=O)C(c3ccccc3)NC2=O)N=C1C(=O)[O-].[Na+]` (stereo not drawn), the Stability entry in data set [2], in data set [3] and in data set [4] was “Unstable” in each case. In the case of `CC1=C(C(=O)O)N2C(=O)[C@@H](NC(=O)[C@H](N)c3ccccc3)[C@H]2SC1` [CEPHALEXIN ANHYDROUS], the dose excreted at 24 h in data set [5] and in data set [6] was 99% in each case. In turn, `CC1=C(C(=O)O)N2C(=O)[C@@H](NC(=O)[C@H](N)c3ccccc3)[C@H]2SC1.O` [CEPHALEXIN] came in with an LD in the data set with Mus musculus of more than 5000 mg/kg.

For the origin of these results see ChEMBL document CHEMBL3244389, “Cephalosporin degradations” (J Med Chem, 1977).
